What was measured:
Format in all cases: cell-based
[1] = system: human iPS cells (1231A3 strain); experiment: Bright field observation of cell aggregates in suspension culture (aggregate shape, neuroepithelium / neural tissue formation); settings: for aggregate growth and neuroepithelium formation (bright field): Example 7, SAG 30 nM, PMA 0.2 μM or human recombinant Shh 300 ng/ml day 0, BMP4 1.5 nM day 3
Experimental: The above subconfluent human iPS cells were treated with a cell dispersion solution by using TrypLE Select (Life Technologies), and further dispersed into single cells by a pipetting operation. Thereafter, the above human iPS cells dispersed into single cells were suspended in 100 μl of a serum-free medium in a non-cell-adhesive 96 well culture plate (PrimeSurface 96V-bottom plate, SUMITOMO BAKELITE) at 1.2×10^4 cells per well, and subjected to suspension culturing at 37° C., 5% CO2. As a serum-free medium (gfCDM+KSR) therefor, a 1:1 mixture of F-12 medium and IMDM medium supplemented with 10% KSR, 450 μM 1-monothioglycerol, 1× Chemically defined lipid concentrate was used. At the start of the suspension culturing (on day 0 after the start of suspension culturing, step 2 start), Y27632 (final concentration 20 μM) was added to the above serum-free medium. By day 2 after the start of suspension culturing, cell aggregates were formed (step 2 completed, and step 3 start). On day 3 after the start of suspension culturing, a serum-free medium (50 μl) free of Y27632 was added.
On day 6 after the start of suspension culturing, a half amount of the medium was changed with a medium free of Y27632 and containing or not containing human recombinant BMP4 (manufactured by R&D) to adjust the final concentration of exogenous human recombinant BMP4 to 1.5 nM (55 ng/ml, FIG. 1B) or to give a medium free of exogenous human recombinant BMP4 (FIG. 1A). As the half-medium exchange operation, a half volume of the medium in the culture vessel, namely 75 μl, was discarded, the above fresh serum-free medium (75 μl) was added to adjust the total medium amount to 150 μl. Thereafter, a half amount of the medium was changed with the above serum-free medium free of Y27632 and human recombinant BMP4 once per 2-4 days. […]
The thus-prepared subconfluent human iPS cells were treated with a cell dispersion solution by using TrypLE Select (Life Technologies), and further dispersed into single cells by a pipetting operation. Thereafter, the above human iPS cells dispersed into single cells were suspended in 100 μl of a serum-free medium in a non-cell-adhesive 96 well culture plate (PrimeSurface 96V-bottom plate, SUMITOMO BAKELITE) at 1.2×10^4 cells per well, and subjected to suspension culturing at 37° C., 5% CO2. As a serum-free medium (gfCDM+KSR) therefor, a 1:1 mixture of F-12 medium and IMDM medium supplemented with 10% KSR, 450 μM 1-monothioglycerol, 1× Chemically defined lipid concentrate was used. […] By day 2 after the start of suspension culturing, cell aggregates were formed (step 2 completed, step 3 start). On day 3 after the start of suspension culturing, a serum-free medium (50 μl) free of Y27632 and SAG was added. On day 6 after the start of suspension culturing, a half amount of the medium was changed with a medium free of Y27632 and containing or not containing human recombinant BMP4 (manufactured by R&D) to adjust the final concentration of exogenous human recombinant BMP4 to 1.5 nM (55 ng/ml, FIG. 1D) or to give a medium free of exogenous human recombinant BMP4 (FIG. 1C). As the half-medium exchange operation, a half volume of the medium in the culture vessel, namely 75 μl, was discarded, the above fresh serum-free medium (75 μl) was added to adjust the total medium amount to 150 μl. Thereafter, a half amount of the medium was changed with the above serum-free medium free of Y27632, SAG and human recombinant BMP4 once per 2-4 days. […]
The thus-prepared subconfluent human iPS cells were treated with the cell dispersion solution by using TrypLE Select (Life Technologies), further dispersed into single cells by pipetting operation, and the above human iPS cells dispersed into single cells were suspended in 100 μl of a serum-free medium at 1.2×10^4 cells per well of a non-cell-adhesive 96-well culture plate (PrimeSurface 96V-bottom plate, manufactured by SUMITOMO BAKELITE). Thereafter, the cells were subjected to suspension culturing at 37° C., 5% CO2. […]

[2] = system: human iPS cells (1231A3 strain); experiment: Immunostaining of aggregate cryosections for retinal tissue markers Chx10 and Rx; settings: Example 7, BMP4 1.5 nM day 3, day 18
Excerpt: The above cell aggregates on day 19 after the start of suspension culturing were each fixed with 4% para-formaldehyde to give cryosections. These cryosections were immunostained for Chx10 (anti-Chx10 antibody, manufactured by Exalpha, sheep), which is one of the retinal tissue markers, or Rx (anti-Rx antibody, manufactured by TAKARA, guinea pig), which is one of the retinal tissue markers. In judgment of whether the above marker is positive in the immunostaining analysis, a fluorescence intensity which is not less than 2 times higher than that of the background was taken as positive.
The thus-prepared cell aggregates on day 18 after the start of suspension culturing, which were produced by adding SAG in step 2 from feeder-free iPS cells as a starting material, were fixed with 4% para-formaldehyde to produce frozen sections. These frozen sections were immunostained for Chx10 (anti-Chx10 antibody, Exalpha, sheep), which is one of the retinal tissue markers, or Rx (anti-Rx antibody, manufactured by TAKARA, guinea pig), which is one of the retinal tissue markers. These immunostained sections were observed under an inverted fluorescence microscope.
The cell aggregates on day 18 after the start of suspension culturing were fixed with 4% para-formaldehyde to produce frozen sections. These frozen sections were immunostained for Chx10 (anti-Chx10 antibody, Exalpha, sheep), which is one of the retinal tissue markers.

[3] = system: human iPS cells (201B7 strain); experiment: Bright field observation of cell aggregates in suspension culture (neuroepithelium formation); settings: Example 6; StemFit; SAG 30 nM, Purmorphamine 0.2 μM or human recombinant Shh 50 ng/ml day 0; BMP4 1.5 nM day 3; day 18
Experimental: The thus-prepared subconfluent human iPS cells were treated with the cell dispersion solution by using TrypLE Select (manufactured by Life Technologies), further dispersed into single cells by pipetting operation, and the above human iPS cells dispersed into single cells were suspended in 100 μl of a serum-free medium at 1.2×10^4 cells per well of a non-cell-adhesive 96-well culture plate (PrimeSurface 96V-bottom plate, SUMITOMO BAKELITE). Thereafter, the cells were subjected to suspension culturing at 37° C., 5% CO2. As the serum-free medium (gfCDM+KSR) therefor, a serum-free medium which is a 1:1 mixture of F-12 medium and IMDM medium supplemented with 10% KSR, 450 μM 1-monothioglycerol, 1× Chemically defined lipid concentrate was used. At the time of the start of suspension culturing (day 0 after the start of suspension culturing, start of step 2), a serum-free medium supplemented with SAG (final concentration […]) as a Shh signal transduction pathway activating substance and Y27632 (20 μM) was used (FIG. 5A-D). By day 2 after the start of suspension culturing, cell aggregates were formed. On day 3 after the start of suspension culturing, a serum-free medium (50 μl) free of Y27632 and SAG was added. […] The thus-prepared cell aggregates were subjected to bright field observation under an inverted microscope (BIOREVO manufactured by KEYENCE) on day 18 after the start of suspension culturing.
The thus-prepared subconfluent human iPS cells were treated with the cell dispersion solution by using TrypLE Select (manufactured by Life Technologies), further dispersed into single cells by pipetting operation, and the above human iPS cells dispersed into single cells were suspended in 100 μl of a serum-free medium at 1.0×10^4 cells per well of a non-cell-adhesive 96-well culture plate (SUMILON SPHEROID V-bottom plate PrimeSurface 96V-bottom plate, SUMITOMO BAKELITE). Thereafter, the cells were subjected to suspension culturing at 37° C., 5% CO2. As the serum-free medium (gfCDM+KSR) therefor, a serum-free medium which is a 1:1 mixture of F-12 medium and IMDM medium supplemented with 10% KSR, 450 μM 1-monothioglycerol, 1× Chemically defined lipid concentrate was used. At the time of the start of suspension culturing (day 0 after the start of suspension culturing, start of step 2), the above serum-free medium supplemented with Y27632 (final concentration 20 μM) and further supplemented with SAG (final concentration 30 nM), Purmorphamine (manufactured by Wako, final concentration 0.2 μM), or human recombinant Shh (manufactured by R&D, Recombinant N-Terminus, final concentration 50 ng/ml) as a Shh signal transduction pathway activating substance was used (FIG. 8). On day 2 after the start of suspension culturing, a cell aggregates were formed. […]

[4] = Comparative Example 1, StemFit, no SAG, BMP4 1.5 nM on day 6, observed day 19
[5] = Example 2 Condition 2, Essential 8, no SAG, BMP4 1.5 nM day 6, day 18

Row | Molecule | aggregate growth and neuroepithelium formation (bright field) ([1]; StemFit, day 18) | proportion of Chx10-positive cells in the total cells ([2]; PMA 0.2 μM day 0) | neuroepithelium formation (bright field) [3] | presence of Chx10-positive cells in the cell aggregate ([2]; SAG 30 nM or Shh 300 ng/ml day 0) | cell aggregates collapsed [1, 4] | neural tissue formation efficiency [1, 4] | cell aggregates collapsed [1, 5] | formation efficiency of neural tissue [1, 5]
1 | c1ccc2c(Oc3nc(Nc4ccc(N5CCOCC5)cc4)c4ncn(C5CCCCC5)c4n3)cccc2c1 [PMA, 9-cyclohexyl-N-[4-(4-morpholinyl)phenyl]-2-(l-naphthalenyloxy)-9H-purin-6-amine] | cell aggregates grew and neuroepithelium was formed | not more than 60% | neuroepithelium was formed |  |  |  |  | 
2 | Shh: human recombinant Shh (manufactured by R&D, Recombinant N-Terminus), Sonic hedgehog signal transduction pathway activating substance | cell aggregates grew and neuroepithelium was formed |  | neuroepithelium was formed | contained Chx10-positive cells |  |  |  | 
3 | BMP4: human recombinant BMP4 (manufactured by R&D), BMP signal transduction pathway activating substance (protein, UniProt P12644 293-408, looked up) Bone morphogenetic protein 4: SPKHHSQRARKKNKNCRRHSLYVDFSDVGWNDWIVAPPGYQAFYCHGDCPFPLADHLNSTNHAIVQTLVNSVNSSIPKACCVPTELSAISMLYLDEYDKVVLKNYQEMVVEGCGCR |  |  |  |  | not less than 90% | poor | not less than 80% | poor

From patent US11214772B2, “Production method for retinal tissue” (SUMITOMO DAINIPPON PHARMA CO., LTD., priority 2014, dated 2022)
